# Earlier results, collected in patent publication US6713950B2, “Low volatility slurry for emission mix powder” (General Electric Company, priority 2001, dated 2004).
# System: rats
substance,measurement,value
polyethylene glycol 200 [PEG 200],oral LD50,28000 mg/kg
